Test results from patent US10807952B2 (Achillion Pharmaceuticals, Inc., priority 2015, dated 2020).

What follows are molecules tested against Human Factor D (Homo sapiens (Human), UniProt P00746) (assay: Human Factor D assay (Z-L-Lys-SBzl / DTNB, absorbance at 405 nm)). Conditions: Table 4; Human Factor D 80 nM, assay of Example 13.
Assay type: biochemical
Summary of the method: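 Human serum-purified Factor D (80 nM final) was preincubated with compound for 5 min at room temperature in 50 mM Tris, 1M NaCl, pH 7.5. IC50 came from nonlinear regression of rate versus compound concentration.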

Chain of Human Factor D (P00746 26-253): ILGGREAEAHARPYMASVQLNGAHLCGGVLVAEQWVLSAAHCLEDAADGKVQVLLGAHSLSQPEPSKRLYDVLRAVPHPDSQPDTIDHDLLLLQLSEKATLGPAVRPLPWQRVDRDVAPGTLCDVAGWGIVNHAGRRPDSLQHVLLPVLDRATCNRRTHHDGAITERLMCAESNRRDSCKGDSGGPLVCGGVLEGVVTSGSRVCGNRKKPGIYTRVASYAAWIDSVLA

Row | SMILES | IC50 [nM]
1 | CC(=O)c1nn(CC(=O)N2C[C@H](F)C[C@H]2C(=O)Nc2cccc(-c3ccc4sc(N)nc4c3)c2F)c2ccccc12 [Compound 100, (2S,4R)-1-(2-(3-acetyl-1H-indazol-1-yl)acetyl)-N-(3-(2-aminobenzo[d]thiazol-5-yl)-2-fluorophenyl)-4-fluoropyrrolidine-2-carboxamide] | < 1000
2 | CC(=O)c1nn(CC(=O)N2C[C@H](F)C[C@H]2C(=O)Nc2cccc(-c3ccc4nc(N)sc4c3)c2F)c2ccccc12 [Compound 101, (2S,4R)-1-(2-(3-acetyl-1H-indazol-1-yl)acetyl)-N-(3-(2-aminobenzo[d]thiazol-6-yl)-2-fluorophenyl)-4-fluoropyrrolidine-2-carboxamide] | < 1000
3 | CC(=O)c1nn(CC(=O)N2C[C@H](F)C[C@H]2C(=O)Nc2cccc(-c3ccc4[nH]c(=O)[nH]c(=O)c4c3)c2F)c2ccccc12 [Compound 102, (2S,4R)-1-(2-(3-acetyl-1H-indazol-1-yl)acetyl)-N-(3-(2,4-dioxo-1,2,3,4-tetrahydroquinazolin-6-yl)-2-fluorophenyl)-4-fluoropyrrolidine-2-carboxamide] | < 1000
4 | CC(=O)c1nn(CC(=O)N2C[C@H](F)C[C@H]2C(=O)Nc2cccc(-c3ccc4sc(O)nc4c3)c2F)c2ccccc12 [Compound 103, (2S,4R)-1-(2-(3-acetyl-1H-indazol-1-yl)acetyl)-4-fluoro-N-(2-fluoro-3-(2-hydroxybenzo[d]thiazol-5-yl)phenyl)pyrrolidine-2-carboxamide] | < 1000
5 | CC(=O)c1nn(CC(=O)N2C[C@H](F)C[C@H]2C(=O)Nc2cccc(/C=C/c3nc4c(Cl)cccc4[nH]3)c2F)c2ccccc12 [Compound 104, (2S,4R)-1-(2-(3-acetyl-1H-indazol-1-yl)acetyl)-N-(3-((E)-2-(4-chloro-1H-benzo[d]imidazol-2-yl)vinyl)-2-fluorophenyl)-4-fluoropyrrolidine-2-carboxamide] | < 1000
6 | Cc1cccc(NC(=O)[C@@H]2CCC(F)CCN2C(=O)Cn2cc(C(N)=O)c3cc(C4=CCCCC4)ccc32)n1 (stereo partly drawn) [Compound 106, 5-(cyclohex-1-en-1-yl)-1-(2-((2S)-5-fluoro-2-((6-methylpyridin-2-yl)carbamoyl)azepan-1-yl)-2-oxoethyl)-1H-indole-3-carboxamide] | > 10000
7 | Cc1c(Br)c(C(N)=O)nn1CC(=O)N1C[C@H](F)C[C@H]1C(=O)Nc1cccc(Br)n1 [Compound 107, 4-Bromo-1-(2-((2S,4R)-2-((6-bromopyridin-2-yl)carbamoyl)-4-fluoropyrrolidin-1-yl)-2-oxoethyl)-5-methyl-1H-pyrazole-3-carboxamide] | 1000 to 10000
